Data on 15 molecules can be found in patent US20230072683A1, “PYRIDO-PYRIMIDIN DERIVATIVES AND PHARMACEUTICAL COMPOSITION, FOR USE IN PREVENTING OR TREATING PI3 KINASE RELATED DISEASES, COMPRISING SAME AS ACTIVE INGREDIENT” (BORYUNG PHARMACEUTICAL CO., LTD, priority 2019, published 2023).

The structures appear in SMILES notation. Where two headings read alike, the source gives them in different places.

Assay [1] concerns the target PI3K-δ (PI3K(p1108/p857) (h)) (Homo sapiens, UniProt O00329). Put plainly: Evaluation of inhibitory activity against PI3K-δ (HTRF kinase assay). Particulars: for inhibition at 0.01 µM: compound concentration 0.01 μM, read-out: EXP_VALUE(% Inhibition) PI3K-δ 0.01 μM; for inhibition at 0.1 µM: read-out: EXP_VALUE(% Inhibition) PI3K-δ 0.1 μM. The assay is classed as biochemical. In outline:
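HTRF read-out (665/620 nm ratio ×10000) used Eu-labelled anti-GST, GST-tagged GRP1 PH domain and streptavidin-allophycocyanin after EDTA/PIP3 stop.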

Another assay concerns the target DNA-PK(h) (Homo sapiens, UniProt P78527). Put plainly: Evaluation of inhibitory activity against DNA-PK (HTRF kinase assay, GST-cMyc-p53 substrate). It counts as biochemical. Conditions: for inhibition at 0.01 µM: compound concentration 0.01 μM, read-out: EXP_VALUE(% Inhibition) DNA-PK(h) 0.01 μM; for inhibition at 0.1 µM: read-out: EXP_VALUE(% Inhibition) DNA-PK(h) 0.1 μM. The gist of the method: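 Human DNA-PK with 50 μM GST-cMyc-p53 substrate; reaction started with Mg/ATP, run 30 min at room temperature, stopped with EDTA. Phospho-Ser15 p53 detected by HTRF (Eu anti-phospho-Ser15, d2 anti-GST), signal = 10000×(Em 665/Em 620).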

Sequence of PI3K-δ (PI3K(p1108/p857) (h)) (O00329 whole entry, the tested form may be a part): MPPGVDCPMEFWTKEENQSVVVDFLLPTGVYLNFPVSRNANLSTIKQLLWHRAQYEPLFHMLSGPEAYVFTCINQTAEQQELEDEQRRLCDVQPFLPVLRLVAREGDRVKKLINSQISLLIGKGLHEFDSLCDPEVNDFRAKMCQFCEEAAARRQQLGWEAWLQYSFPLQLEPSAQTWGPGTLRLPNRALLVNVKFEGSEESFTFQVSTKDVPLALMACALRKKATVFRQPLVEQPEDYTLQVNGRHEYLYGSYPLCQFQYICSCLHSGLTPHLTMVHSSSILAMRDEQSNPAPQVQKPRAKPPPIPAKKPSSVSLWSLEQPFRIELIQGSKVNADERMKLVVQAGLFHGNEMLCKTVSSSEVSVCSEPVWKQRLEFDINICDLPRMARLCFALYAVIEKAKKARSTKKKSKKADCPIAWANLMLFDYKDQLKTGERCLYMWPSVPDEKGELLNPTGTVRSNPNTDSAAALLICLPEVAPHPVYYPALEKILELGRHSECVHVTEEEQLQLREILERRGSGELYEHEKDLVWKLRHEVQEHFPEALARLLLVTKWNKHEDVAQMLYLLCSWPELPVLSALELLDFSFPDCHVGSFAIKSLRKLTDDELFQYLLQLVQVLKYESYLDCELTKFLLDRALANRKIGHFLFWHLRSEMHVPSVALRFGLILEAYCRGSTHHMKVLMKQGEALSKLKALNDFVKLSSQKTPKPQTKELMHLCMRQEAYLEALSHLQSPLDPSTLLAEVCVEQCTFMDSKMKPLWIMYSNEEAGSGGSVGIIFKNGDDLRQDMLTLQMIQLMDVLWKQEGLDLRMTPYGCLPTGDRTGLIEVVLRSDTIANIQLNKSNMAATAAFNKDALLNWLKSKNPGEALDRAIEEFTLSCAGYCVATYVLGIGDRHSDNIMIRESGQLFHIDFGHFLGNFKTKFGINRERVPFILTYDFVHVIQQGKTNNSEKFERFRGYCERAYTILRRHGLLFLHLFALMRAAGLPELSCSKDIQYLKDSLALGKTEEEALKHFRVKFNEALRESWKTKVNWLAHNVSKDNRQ
Sequence of PI3K-δ (PI3K(p1108/p857) (h)) (P27986 whole entry partner, the tested form may be a part): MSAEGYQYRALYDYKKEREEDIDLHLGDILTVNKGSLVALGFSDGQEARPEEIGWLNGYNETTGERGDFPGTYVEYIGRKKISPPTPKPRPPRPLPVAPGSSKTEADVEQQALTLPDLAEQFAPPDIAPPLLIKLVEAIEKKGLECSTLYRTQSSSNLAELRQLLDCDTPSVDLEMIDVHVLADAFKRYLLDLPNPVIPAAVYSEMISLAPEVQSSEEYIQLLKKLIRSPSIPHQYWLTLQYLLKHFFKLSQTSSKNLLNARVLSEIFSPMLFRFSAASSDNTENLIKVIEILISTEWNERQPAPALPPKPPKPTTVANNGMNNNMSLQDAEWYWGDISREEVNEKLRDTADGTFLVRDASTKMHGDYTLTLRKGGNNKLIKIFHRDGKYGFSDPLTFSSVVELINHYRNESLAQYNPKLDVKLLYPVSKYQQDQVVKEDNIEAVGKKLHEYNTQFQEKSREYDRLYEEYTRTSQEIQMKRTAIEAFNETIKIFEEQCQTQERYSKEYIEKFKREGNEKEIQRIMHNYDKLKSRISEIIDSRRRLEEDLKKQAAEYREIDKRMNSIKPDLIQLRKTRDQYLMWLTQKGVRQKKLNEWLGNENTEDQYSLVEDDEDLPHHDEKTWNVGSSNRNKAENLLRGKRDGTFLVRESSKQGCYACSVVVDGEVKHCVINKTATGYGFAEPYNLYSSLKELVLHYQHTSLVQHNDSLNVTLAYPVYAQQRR

With `COc1ccc(-c2cccc3c(Cl)c([C@H](C)Nc4ncnc5[nH]ccc(=O)c45)n(-c4ccccc4)c(=O)c23)nc1` [Example 41, (S)-4-((1-(4-chloro-8-(5-methoxypyridin-2-yl)-1-oxo-2-phenyl-1,2-dihydroisoquinolin-3-yl)ethyl)amino)pyrido[2,3-d]pyrimidin-5(8H)-one], the inhibition at 0.01 µM was determined as 89% in assay [1] and 79% at DNA-PK(h).

Take `C[C@H](Nc1ncnc2[nH]ccc(=O)c12)c1c(Cl)c2cccc(-c3ncon3)c2c(=O)n1-c1ccccc1` [Example 351, (S)-4-((1-(4-chloro-8-(1,2,4-oxadiazol-3-yl)-1-oxo-2-phenyl-1,2-dihydroisoquinolin-3-yl)ethyl)amino)pyrido[2,3-d]pyrimidin-5(8H)-one]: the inhibition at 0.01 µM in assay [1] came out at 50%; on DNA-PK(h), 45%. Also, the results for the inhibition at 0.1 µM (in assay [1] (compound concentration 0.1 μM); at DNA-PK(h) (compound concentration 0.1 μM)) were 91% and 89%, respectively.

Consider `C[C@H](Nc1ncnc2[nH]ccc(=O)c12)c1c(Cl)c2cccc(-c3ccc4ncccc4c3)c2c(=O)n1-c1ccccc1` [Example 121, (S)-4-((1-(4-chloro-1-oxo-2-phenyl-8-(quinolin-6-yl)-1,2-dihydroisoquinolin-3-yl)ethyl)amino)pyrido[2,3-d]pyrimidin-5(8H)-one], for which the inhibition at 0.01 µM is 84% in assay [1] and 76% on DNA-PK(h). Besides, the inhibition at 0.1 µM came to 95% in assay [1] (compound concentration 0.1 μM) and 98% on DNA-PK(h) (compound concentration 0.1 μM).

As to `C[C@H](Nc1ncnc2[nH]ccc(=O)c12)c1c(Cl)c2cccc(C#Cc3ccc(N(C)C)cc3)c2c(=O)n1-c1ccccc1` [Example 314, (S)-4-((1-(4-chloro-8-((4-(dimethylamino)phenyl)ethynyl)-1-oxo-2-phenyl-1,2-dihydroisoquinolin-3-yl)ethyl)amino)-5-oxo-5,8-dihydropyrido[2,3-d]pyrimidin-5(8H)-one], the inhibition at 0.01 µM in assay [1] was found to be 76%; on DNA-PK(h), 25%. Moreover, the inhibition at 0.1 µM was determined as 96% in assay [1] (compound concentration 0.1 μM) and 75% at DNA-PK(h) (compound concentration 0.1 μM).

On to `C[C@H](Nc1ncnc2[nH]ccc(=O)c12)c1c(Cl)c2cccc(-c3ccc(OC(F)(F)F)cc3)c2c(=O)n1-c1ccccc1` [Example 247, (S)-4-((1-(4-chloro-1-oxo-2-phenyl-8-(4-(trifluoromethoxy)phenyl)-1,2-dihydroisoquinolin-3-yl)ethyl)amino)pyrido[2,3-d]pyrimidin-5(8H)-one], for which the inhibition at 0.01 µM in assay [1] is 75%; at DNA-PK(h), 21%.

For `C[C@H](Nc1ncnc2[nH]ccc(=O)c12)c1c(Cl)c2cccc([S@](=N)(=O)c3ncccn3)c2c(=O)n1-c1ccccc1` [Example 421, 4-(((S)-1-(4-chloro-1-oxo-2-phenyl-8-((S)-pyrimidine-2-sulfonimidoyl)-1,2-dihydroisoquinolin-3-yl)ethyl)amino)pyrido[2,3-d]pyrimidin-5(8H)-one], the inhibition at 0.1 µM in assay [1] (compound at 0.1 μM) was 9%; on DNA-PK(h) (compound at 0.1 μM) it was 7%.

Consider `C[C@H](Nc1ncnc2[nH]ccc(=O)c12)c1c(Cl)c2cccc(-c3cncnc3)c2c(=O)n1-c1ccccc1` [Example 102, (S)-4-((1-(4-chloro-1-oxo-2-phenyl-8-(pyrimidin-5-yl)-1,2-dihydroisoquinolin-3-yl)ethyl)amino)pyrido[2,3-d]pyrimidin-5(8H)-one], for which the inhibition at 0.01 µM in assay [1] is 110%; at DNA-PK(h), 73%. In addition, the inhibition at 0.1 µM in assay [1] (compound concentration 0.1 μM) is 105%; on DNA-PK(h) (compound concentration 0.1 μM) it was 94%.

Regarding `C[C@H](Nc1ncnc2[nH]ccc(=O)c12)c1c(Cl)c2cccc(-c3ccc4c(c3)NC(=O)C(C)(C)O4)c2c(=O)n1-c1ccccc1` [Example 373, (S)-6-(4-chloro-1-oxo-3-(1-((5-oxo-5,8-dihydropyrido[2,3-d]pyrimidin-4-yl)amino)ethyl)-2-phenyl-1,2-dihydroisoquinolin-8-yl)-2,2-dimethyl-2H-benzo[b] [1,4]oxazin-3 (4H)-one], the inhibition at 0.1 µM came to 48% in assay [1] (compound concentration 0.1 μM) and 36% at DNA-PK(h) (compound concentration 0.1 μM).

Take `C[C@H](Nc1ncnc2[nH]ccc(=O)c12)c1c(Cl)c2cccc(-c3cnc4nonc4c3)c2c(=O)n1-c1ccccc1` [Example 235, (S)-4-((1-(8-([1,2,5]oxadiazolo[3,4-b]pyridin-6-yl)-4-chloro-1-oxo-2-phenyl-1,2-dihydroisoquinolin-3-yl)ethyl)amino)pyrido[2,3-d]pyrimidin-5(8H)-one]: the inhibition at 0.01 µM in assay [1] turned out to be 80%; at DNA-PK(h) it was 46%.

With `COc1cc(-c2cccc3c(Cl)c([C@H](C)Nc4ncnc5[nH]ccc(=O)c45)n(-c4ccccc4)c(=O)c23)ncn1` [Example 45, (S)-4-((1-(4-chloro-8-(6-methoxypyrimidin-4-yl)-1-oxo-2-phenyl-1,2-dihydroisoquinolin-3-yl)ethyl)amino)pyrido[2,3-d]pyrimidin-5(8H)-one], the inhibition at 0.01 µM was 10% in assay [1] and 2% at DNA-PK(h).

As to `Cc1c[nH]c2ccc(-c3cccc4c(Cl)c([C@H](C)Nc5ncnc6[nH]ccc(=O)c56)n(-c5ccccc5)c(=O)c34)cc12` [Example 74, (S)-4-((1-(4-chloro-8-(3-methyl-1H-indol-5-yl)-1-oxo-2-phenyl-1,2-dihydroisoquinolin-3-yl)ethyl)amino)pyrido[2,3-d]pyrimidin-5(8H)-one], the inhibition at 0.01 µM in assay [1] was determined as 65%; at DNA-PK(h), 54%. Moreover, the figures for the inhibition at 0.1 µM (in assay [1] (compound concentration 0.1 μM); on DNA-PK(h) (compound concentration 0.1 μM)) were 88% and 90%, respectively.

Consider `Cc1cncc(-c2cccc3c(Cl)c([C@H](C)Nc4ncnc5[nH]ccc(=O)c45)n(-c4ccccc4)c(=O)c23)c1` [Example 119, (S)-4-((1-(4-chloro-8-(5-methylpyridin-3-yl)-1-oxo-2-phenyl-1,2-dihydroisoquinolin-3-yl)ethyl)amino)pyrido[2,3-d]pyrimidin-5(8H)-one], for which the results for the inhibition at 0.01 µM (in assay [1]; at DNA-PK(h)) were 84% and 96%, respectively. For the same molecule, the inhibition at 0.1 µM in assay [1] (compound concentration 0.1 μM) came to 82%; at DNA-PK(h) (compound concentration 0.1 μM), 101%.

In the case of `CCOc1c(OC)ccc(-c2cccc3c(Cl)c([C@H](C)Nc4ncnc5[nH]ccc(=O)c45)n(-c4ccccc4)c(=O)c23)c1F` [Example 199, (S)-4-((1-(4-chloro-8-(3-ethoxy-2-fluoro-4-methoxyphenyl)-1-oxo-2-phenyl-1,2-dihydroisoquinolin-3-yl)ethyl)amino)pyrido[2,3-d]pyrimidin-5(8H)-one], the inhibition at 0.01 µM in assay [1] is 35%; at DNA-PK(h), 60%.

For the molecule `COc1cc(OC(C)C)cc(-c2cccc3c(Cl)c([C@H](C)Nc4ncnc5[nH]ccc(=O)c45)n(-c4ccccc4)c(=O)c23)c1` [Example 157, (S)-4-((1-(4-chloro-8-(3-isopropoxy-5-methoxyphenyl)-1-oxo-2-phenyl-1,2-dihydroisoquinolin-3-yl)ethyl)amino)pyrido[2,3-d]pyrimidin-5(8H)-one], the results for the inhibition at 0.01 µM (in assay [1]; at DNA-PK(h)) were 57% and 52%, respectively.

Take `C[C@H](Nc1ncnc2[nH]ccc(=O)c12)c1c(Cl)c2cccc(-c3cc[nH]n3)c2c(=O)n1-c1ccccc1` [Example 226, (S)-4-((1-(4-chloro-1-oxo-2-phenyl-8-(1H-pyrazol-3-yl)-1,2-dihydroisoquinolin-3-yl)ethyl)amino)pyrido[2,3-d]pyrimidin-5(8H)-one]: the inhibition at 0.01 µM in assay [1] was determined as 83%; at DNA-PK(h), 56%.
